Here are results for two compounds from patent US12441765B2, “Peptides and medical uses thereof” (Anbition S.R.L., priority 2018, dated 2025).

Data set [1] can be described thus: Serum protease stability in 10% fetal calf serum (RP-HPLC). Type of data set: in vitro ADME. The note with it: 10% FCS. The procedure:
The stability of the peptide iVR1-Cys in 10% serum (fetal calf serum, FCS) in a 50 mM phosphate buffer solution, pH 7.3, at 168 h was determined as described by Ponticelli et al., relying on a method based on RP-HPLC chromatography, described therein [Ponticelli et al., J Biol Chem. 2008 Dec. 5; 283 (49): 34250-9].
The reference curve was constructed by dissolving the compound in DMSO at increasing concentrations of between 0.1 μmol/L and 1000 μmol/L in order to have complete dissolution. The concentration of the molecule left in contact with 10% FCS at the initial concentration of 10 μmol/L was then determined by drawing 3 aliquots at time t=0, then every hour in the first 12 hours and then at 24, 72, 120, and 168 h. The aliquots were diluted 1:1 with acetic acid 0.1 M in order to detach any peptide bound to the albumin, centrifuged to remove any precipitated materials and analyzed by RP-HPLC under the conditions reported in Ponticelli et al. The amount of residual peptide detected in the aliquots, expressed as a percentage relative to the initial amount, was plotted as a function of time. The results are shown in Table VII as the mean of the three determinations±the standard deviation (SD).

For data set [2], the target named is T1, PIGF/VEGFR-1 interaction (Homo sapiens, UniProt P17948).
T1 construct: the form consisting of the seven extracellular domains of the receptor fused to the Fc domain of human lgG; purchased R&D Systems 321-FL (receptor); 264-PG (PlGF)
T1 sequence (P17948 27-758 limits assumed): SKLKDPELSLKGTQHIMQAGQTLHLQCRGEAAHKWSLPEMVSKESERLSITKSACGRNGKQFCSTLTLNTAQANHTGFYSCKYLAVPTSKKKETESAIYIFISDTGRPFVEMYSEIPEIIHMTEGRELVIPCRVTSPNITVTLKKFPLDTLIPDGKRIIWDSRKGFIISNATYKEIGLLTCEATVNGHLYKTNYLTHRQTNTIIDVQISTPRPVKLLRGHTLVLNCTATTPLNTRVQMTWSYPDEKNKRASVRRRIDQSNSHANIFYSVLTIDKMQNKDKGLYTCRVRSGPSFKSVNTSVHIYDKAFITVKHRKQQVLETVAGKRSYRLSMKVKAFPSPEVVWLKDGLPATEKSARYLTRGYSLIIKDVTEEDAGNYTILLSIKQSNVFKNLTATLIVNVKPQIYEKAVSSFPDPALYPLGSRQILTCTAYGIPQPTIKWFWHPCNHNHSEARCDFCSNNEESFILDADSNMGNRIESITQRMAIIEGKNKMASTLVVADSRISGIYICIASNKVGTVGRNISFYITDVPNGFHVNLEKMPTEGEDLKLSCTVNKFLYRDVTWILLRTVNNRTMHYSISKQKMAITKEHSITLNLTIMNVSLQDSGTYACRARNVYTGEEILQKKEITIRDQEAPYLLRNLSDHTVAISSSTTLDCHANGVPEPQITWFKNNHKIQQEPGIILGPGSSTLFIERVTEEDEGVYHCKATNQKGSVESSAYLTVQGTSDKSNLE
Nature of the data set: ELISA competition assay of PIGF binding to VEGFR-1. The conditions noted are these: for binding % (PIGF/VEGFR-1 interaction): residual binding. The procedure: The assay to test the binding of PIGF or VEGF-A with the VEGFR-1 receptor is based on the ELISA method [Ponticelli et al., JBC. 2008 Dec. 5; 283 (49): 34250-9] and was performed using reagents acquired from R&D Systems.
The human recombinant receptor VEGFR-1, in particular the form consisting of the seven extracellular domains of the receptor fused to the Fc domain of human lgG (R&D Systems, cat N° 321-FL), was made to adhere in the wells of 96-well microplates at a concentration of 0.5 μg/ml in PBS pH 7.5 (100 μl/well) for 16 hours at room temperature (RT).
After the non-specific binding sites had been blocked in the wells using a buffer solution consisting of PBS pH 7.5 containing 3% BSA, 5 ng/ml of recombinant PIGF (R&D Systems, cat N° 264-PG), or 5 ng/ml of recombinant VEGF-A (R&D Systems, cat N° 293-VE) of human origin in PBET (PBS pH 7.5, BSA 0.1%, EDTA 5 mM, Tween 0.004%) were added to the wells with the adhered receptor.
Simultaneously with the ligands, i.e., PIGF or VEGF-A, graduated doses of iVR1, iVR1-Cys or a control peptide (PC-[(S-Ser)-(S-Ala)-(S-Cha) tripeptide with a tetrameric structure identical to the structure of the iVR1 peptides]) were added at concentrations comprised between 780 and 50000 nM. The binding reaction was conducted for one hour at 37° C., followed by one hour at room temperature.
(§1) At the end of the binding and/or competition step, anti-human-PIGF biotinylated polyclonal antibodies (R&D Systems, cat No. BAF264) or anti-human-VEGF-A (R&D Systems, cat No. BAF293) were added to the wells at the concentration of 300 ng/ml in PBET. After one hour of incubation at 37° C. followed by one hour at room temperature, an HRP-conjugated avidin-streptavidin system (Vectastain elite ABC kit) and a substrate for HRP (o-phenylenediamine-Sigma, cat No. P1526) were added to the wells. Quantization was performed by determining the absorbance at 490 nm.
Any inhibitory activity of the peptides was expressed in terms of % of residual binding, comparing the data obtained for the binding of PIGF or VEGF-A to the receptors in the presence of the tetrameric peptides with those in the absence of the same. iVR1 represented the positive control of the inhibition of the PIGF/VEGFR-1 or VEGF-A/VEGFR-1 interaction.
Background: In an ELISA, binding on a coated surface is turned into a signal by an enzyme label.

The target in data set [3] is VEGFR1 (Homo sapiens, UniProt P17948). The conditions noted are these: cited from earlier work.
VEGFR1, sequence (P17948 27-1338): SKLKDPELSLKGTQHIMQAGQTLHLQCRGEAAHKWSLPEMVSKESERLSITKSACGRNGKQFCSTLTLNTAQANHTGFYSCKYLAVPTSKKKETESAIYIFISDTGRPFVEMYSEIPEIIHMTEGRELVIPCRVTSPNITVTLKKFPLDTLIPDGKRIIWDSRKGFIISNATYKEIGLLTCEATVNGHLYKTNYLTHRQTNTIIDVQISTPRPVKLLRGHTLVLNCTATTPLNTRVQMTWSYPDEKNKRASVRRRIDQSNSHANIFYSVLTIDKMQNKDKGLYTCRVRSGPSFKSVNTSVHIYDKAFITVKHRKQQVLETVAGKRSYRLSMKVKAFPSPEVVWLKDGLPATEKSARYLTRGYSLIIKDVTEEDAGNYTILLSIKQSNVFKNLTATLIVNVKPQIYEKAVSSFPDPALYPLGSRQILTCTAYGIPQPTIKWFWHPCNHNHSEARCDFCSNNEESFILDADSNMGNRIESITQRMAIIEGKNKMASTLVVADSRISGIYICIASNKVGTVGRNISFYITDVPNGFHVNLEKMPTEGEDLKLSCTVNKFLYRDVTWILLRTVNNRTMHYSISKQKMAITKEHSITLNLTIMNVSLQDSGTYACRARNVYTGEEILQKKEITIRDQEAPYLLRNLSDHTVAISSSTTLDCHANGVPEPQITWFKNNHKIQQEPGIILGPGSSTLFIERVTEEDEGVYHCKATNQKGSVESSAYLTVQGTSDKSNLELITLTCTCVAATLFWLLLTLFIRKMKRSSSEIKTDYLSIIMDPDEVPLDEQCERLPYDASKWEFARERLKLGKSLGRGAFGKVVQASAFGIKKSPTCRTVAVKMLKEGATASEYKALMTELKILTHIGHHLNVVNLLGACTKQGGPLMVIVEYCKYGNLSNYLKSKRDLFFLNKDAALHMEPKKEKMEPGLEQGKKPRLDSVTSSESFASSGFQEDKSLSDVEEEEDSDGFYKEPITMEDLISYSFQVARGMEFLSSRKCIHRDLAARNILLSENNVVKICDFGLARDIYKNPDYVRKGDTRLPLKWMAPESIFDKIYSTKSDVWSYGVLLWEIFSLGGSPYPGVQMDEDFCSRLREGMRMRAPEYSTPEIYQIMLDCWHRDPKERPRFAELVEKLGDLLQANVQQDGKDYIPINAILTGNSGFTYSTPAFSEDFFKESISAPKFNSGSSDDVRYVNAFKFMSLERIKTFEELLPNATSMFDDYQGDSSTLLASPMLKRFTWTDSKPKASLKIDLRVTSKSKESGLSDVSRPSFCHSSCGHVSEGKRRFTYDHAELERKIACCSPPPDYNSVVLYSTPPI
Data set [4] deals with T2, VEGF-A/VEGFR-1 interaction (Homo sapiens, UniProt P17948).
T2 construct: the form consisting of the seven extracellular domains of the receptor fused to the Fc domain of human lgG; purchased R&D Systems 321-FL (receptor); 293-VE (VEGF-A)
T2 sequence (P17948 27-758 limits assumed): as the sequence (P17948 27-758 limits assumed) above
Nature of the data set: ELISA competition assay of VEGF-A binding to VEGFR-1. The conditions noted are these: for binding % (VEGF-A/VEGFR-1 interaction): residual binding. The procedure: as §1, with “The binding reaction was conducted for one hour at 37° C., followed by one hour at room temperature. At” for “At”, “nm. Any inhibitory activity of the peptides was expressed in terms of % of residual binding, comparing the data obtained for the binding of PIGF or VEGF-A to the receptors in the presence of the tetrameric peptides with those in the absence of the same. iVR1 represented the positive control of the inhibition of the PIGF/VEGFR-1 or VEGF-A/VEGFR-1 interaction.” for “nm.”

Like-named read-outs stand apart in the source and are kept apart here.

As for `N[C@H](CCC(=O)O)C(=O)N[C@@H](CSCc1ccccc1)C(=O)N[C@@H](CC1CCCCC1)C(=O)NCCCC[C@H](NC(=O)[C@H](CC1CCCCC1)NC(=O)[C@H](CSCc1ccccc1)NC(=O)[C@H](N)CCC(=O)O)C(=O)NCCCC[C@H](NC(=O)[C@H](CCCCNC(=O)[C@H](CC1CCCCC1)NC(=O)[C@H](CSCc1ccccc1)NC(=O)[C@H](N)CCC(=O)O)NC(=O)[C@H](CC1CCCCC1)NC(=O)[C@H](CSCc1ccccc1)NC(=O)[C@H](N)CCC(=O)O)C(=O)N[C@H](CS)C(=O)O` [iVR1-Cys], the “% residual peptide ± SD” value in data set [1] (0 h, 50 mM phosphate buffer pH 7.3, initial 10 μmol/L) stood at 101 ± 4%. In addition, the remaining at 1 h, 10 μmol/L in data set [1] (calf (bovine), 10% fetal calf serum, 1 h, pH 7.3, read-out: % residual peptide ± SD) stood at 100 ± 11%. In data set [1] (calf (bovine), 10% fetal calf serum, 2 h, pH 7.3, read-out: % residual peptide ± SD), the remaining at 2 h, 10 μmol/L is 99 ± 7%. Further, in data set [1] (calf (bovine), 10% fetal calf serum, 3 h, pH 7.3, read-out: % residual peptide ± SD), the remaining at 3 h, 10 μmol/L came out at 98 ± 5%. Besides, in data set [1] (calf (bovine), 10% fetal calf serum, 4 h, pH 7.3, read-out: % residual peptide ± SD), the remaining at 4 h, 10 μmol/L is 97 ± 4%. The remaining at 5 h, 10 μmol/L in data set [1] (calf (bovine), 10% fetal calf serum, 5 h, pH 7.3, read-out: % residual peptide ± SD) was found to be 96 ± 5%. For the same compound, the remaining at 6 h, 10 μmol/L in data set [1] (calf (bovine), 10% fetal calf serum, 6 h, pH 7.3, read-out: % residual peptide ± SD) stood at 99 ± 6%. The remaining at 7 h, 10 μmol/L in data set [1] (calf (bovine), 10% fetal calf serum, 7 h, pH 7.3, read-out: % residual peptide ± SD) was found to be 95 ± 8%. Further, in data set [1] (calf (bovine), 10% fetal calf serum, 8 h, pH 7.3, read-out: % residual peptide ± SD), the remaining at 8 h, 10 μmol/L was 96 ± 5%. Besides, the remaining at 9 h, 10 μmol/L in data set [1] (calf (bovine), 10% fetal calf serum, 9 h, pH 7.3, read-out: % residual peptide ± SD) turned out to be 95 ± 6%. The remaining at 10 h, 10 μmol/L in data set [1] (calf (bovine), 10% fetal calf serum, 10 h, pH 7.3, read-out: % residual peptide ± SD) came out at 94 ± 10%. Further, in data set [1] (calf (bovine), 10% fetal calf serum, 11 h, pH 7.3, read-out: % residual peptide ± SD), the remaining at 11 h, 10 μmol/L came to 94 ± 8%. Further, the remaining at 12 h, 10 μmol/L in data set [1] (calf (bovine), 10% fetal calf serum, 12 h, pH 7.3, read-out: % residual peptide ± SD) turned out to be 93 ± 4%. For the same compound, in data set [1] (calf (bovine), 10% fetal calf serum, 24 h, pH 7.3, read-out: % residual peptide ± SD), the remaining at 24 h, 10 μmol/L was determined as 93 ± 6%. Further, the remaining at 72 h, 10 μmol/L in data set [1] (calf (bovine), 10% fetal calf serum, 72 h, pH 7.3, read-out: % residual peptide ± SD) was 92 ± 7%. For the same compound, the remaining at 120 h, 10 μmol/L in data set [1] (calf (bovine), 10% fetal calf serum, 120 h, pH 7.3, read-out: % residual peptide ± SD) worked out at 91 ± 5%. Moreover, in data set [1] (calf (bovine), 10% fetal calf serum, 168 h, pH 7.3, read-out: % residual peptide ± SD), the remaining at 168 h, 10 μmol/L amounted to 92 ± 8%.
Take `N[C@H](CCC(=O)O)C(=O)N[C@@H](CSCc1ccccc1)C(=O)N[C@@H](CC1CCCCC1)C(=O)NCCCC[C@H](NC(=O)[C@H](CC1CCCCC1)NC(=O)[C@H](CSCc1ccccc1)NC(=O)[C@H](N)CCC(=O)O)C(=O)NCCCC[C@H](NC(=O)[C@H](CCCCNC(=O)[C@H](CC1CCCCC1)NC(=O)[C@H](CSCc1ccccc1)NC(=O)[C@H](N)CCC(=O)O)NC(=O)[C@H](CC1CCCCC1)NC(=O)[C@H](CSCc1ccccc1)NC(=O)[C@H](N)CCC(=O)O)C(=O)NCC(=O)O` [iVR1]: the “binding % (PIGF/VEGFR-1 interaction)” value in data set [2] (peptide 780 nM) stood at 99.36%; in data set [2] (peptide 1560 nM), 101.32%; in data set [2] (peptide 3125 nM) it was 96.10%; in data set [2] (peptide 6250 nM), 68.49%; in data set [2] (peptide 12500 nM), 44.57%; in data set [2] (peptide 25000 nM), 36.02%. Besides, the “binding % (PIGF/VEGFR-1 interaction)” value in data set [2] (peptide 50000 nM) is given as 26.26%. In addition, the IC50 is around 10 µM in data set [2] (read-out: IC50 of inhibition of the interaction of PIGF with VEGFR-1); around 10 µM in data set [3] (in vitro, reported by Ponticelli et al., read-out: IC50 of inhibition of the interaction of PIGF, VEGF-A and VEGF-B with VEGFR1); at least 10 µM in data set [3] (reported in Ponticelli et al., read-out: affinity towards VEGFR1 (expressed as IC50)); around 10 µM in data set [4] (read-out: IC50 for VEGF-A/VEGFR-1 inhibition). Besides, the “binding % (VEGF-A/VEGFR-1 interaction)” value in data set [4] (peptide 780 nM) came to 98.36%; in data set [4] (peptide 1560 nM), 96.21%; in data set [4] (peptide 3125 nM), 93.93%; in data set [4] (peptide 6250 nM) it was 66.00%; in data set [4] (peptide 12500 nM), 37.02%; in data set [4] (peptide 25000 nM), 21.45%. For the same compound, the “binding % (VEGF-A/VEGFR-1 interaction)” value in data set [4] (peptide 50000 nM) came out at 8.60%.
